Data as given in patent US20110217300A1, “Quinazolinone Compounds and Methods of Use Thereof” (priority 2007, published 2011).
Read-outs that look alike come from different tables or passages of the source.

Tests used:
A549 = assay: MTS cell viability assay; assay type: cell-based; settings: Homo sapiens, A549 non small cell lung, 72 hours, read-out: MTS NCI A549 GI50
Experimental: Two human cancer cell lines were assayed (see, Table 1). Cells were maintained at 37° C. and 5% CO2 in DMEM media (4.5 g/L glucose) supplemented with 10% heat-inactivated FBS, 10 mM L-glutamine, and 10 mM Hepes pH 7.5. Briefly, cells were seeded in 96-well plates as set forth in Table 1 and incubated for 16-24 hours. Candidate compounds were serially diluted in DMSO, further diluted in cell culture media, and then added to cells (final DMSO concentration of 0.33%). Cells were incubated in the presence of candidate compound for 72 hours. […] The Compound Numbers in Table 2 correspond to the numbers listed parenthetically in the Example titles.

HsEg5 = molecular target: T1, HsEg5 (Homo sapiens, UniProt P52732); assay: Fluorescence detection of HsEg5 ATPase activity (ADP Quest, automated); assay type: biochemical
T1 sequence (P52732 18-359 limits assumed): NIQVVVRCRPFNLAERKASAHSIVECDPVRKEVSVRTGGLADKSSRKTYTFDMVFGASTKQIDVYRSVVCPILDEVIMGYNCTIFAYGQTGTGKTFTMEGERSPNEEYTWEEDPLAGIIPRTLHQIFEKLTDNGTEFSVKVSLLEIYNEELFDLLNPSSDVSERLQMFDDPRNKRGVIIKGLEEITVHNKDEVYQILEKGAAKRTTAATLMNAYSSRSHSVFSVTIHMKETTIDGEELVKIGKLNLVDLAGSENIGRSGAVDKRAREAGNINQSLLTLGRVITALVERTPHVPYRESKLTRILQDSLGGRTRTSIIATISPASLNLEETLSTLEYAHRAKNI
Experimental: Purified HsEg5 motor fragment was activated by mixture with preformed MT polymer (Cytoskeleton, Denver, Colo.) at room temperature for 20 minutes. MT activated ATPase activity was measured using ADP Quest (DiscoverX, Fremont, Calif.) in which a coupled-enzyme assay can translate accumulation of ADP into detectable resorufin signal (FIG. 1A). Fluorescence was measured at λEx=535 nm and λEm=590 nm on a Wallac Victor 2 plate reader (Perkin-Elmer Life Sciences, Boston, Mass.). Reagent A and B from ADP Quest kit were aliquoted and frozen in −20° C. before use. A standard curve was determined using the provided ADP reagent in the reaction buffer that consisted of 50 mM Pipes (pH7.0), 5.0 mM MgCl2, 20 μM paclitaxel and […]. The same buffer was used for Km determination with HsEg5 concentration of 10 nM.
For inhibitor screening, 4 μL of compounds were incubated with 10 μL of MT-activated HsEg5 such that the final concentrations for compound range from 100 μM to 5 nM (1 to 3 serial dilutions, final concentration) and final concentration for HsEg5 is 10 nM. The mixture was incubated at room temperature for 10 minutes with mild shaking. The screening assay contained 0.3% DMSO in all reaction wells. We used wells containing only DMSO as negative controls and wells without ATP as background. Addition of 6 μL ATP (final concentration of 20 μM) initiated the ATP hydrolysis reaction. The 20 μL-reaction was allowed to proceed at room temperature for 10 minutes before addition of 10 μL of reagent A and 20 μL of reagent B. After 20-minute development at room temperature, the fluorescence was measured and data analysis was performed using GraphPad Prism version 3.0 (GraphPad Software, San Diego, Calif.)
For the purpose of high-throughput screening, we automated the fluorescence assay using a Sciclone ALH3000 (Caliper Life Sciences, Hopkinton, Mass.) and Multidrop 384 (Thermo Electron Corp, Waltham, Mass.). First, compound dilution plates for screening (at 10 μM or 1 μM) and ICso determination (10 data points from 100 μM to 5 nM) were made in Corning polypropylene V-bottom 96-well plates. In both cases, the 1st and 7th column contained background (No ATP addition) and negative control (DMSO only). For screening compounds at 10 μM or 1 μM, […] of each compound at 50 μM or 5 μM were used in a 20 μL assay reaction. For IC50 determination, the mother compound plate contained 24 μL of tested compound at stock concentration of 30 mM. 6 μL of each test compound in 30 mM was added to each well in the column 2 and followed by 1:3 serial dilutions in DMSO with the Sciclone ALH3000. 234 μL of assay buffer was then added using a Multidrop 384. Then 4 μL of diluted compounds was used in 20 μL-reaction. The final concentration was a 1:300 dilution of the original stock. Second, a reagent source plate was prepared with three rows designated to MT-activated HsEg5, Reagent A and Reagent B respectively. MTs were diluted with assay buffer and polymerized at room temperature for 10 minutes. Just before use, HsEg5 protein was thawed on ice and activated by addition of MT polymers at room temperature for 20 minutes. HsEg5/MT was then added to Row A of the reagent source plate. The final assay concentration was 10 nM HsEg5 and 500 nM MTs. Reagent A and B were stored at −20° C. and thawed at room temperature followed by transferring to rows B & C of the reagent source plate. Third, ATP substrate plate was prepared by transferring 80 μM ATP solution to each well of a V-shape 96-well plate except the wells in the first row where assay buffer was added instead to have no-ATP blanks. The final concentration for ATP in the assay was 20 μM.
The assay was programmed on Sciclone ALH3000 with the following procedures: 1) Addition of 4 μL compounds to the assay plate, followed by addition of 10 μL of MT-activated HsEg5. […]

NCI-H460 = assay: MTS cell viability assay; assay type: cell-based, human; settings: Homo sapiens, NCI-H460, 72 h
Experimental: Cell viability was determined by measuring the activity of dehydrogenase enzymes in metabolically active cells using a tetrazolium compound, MTS. The assay was performed as described in Promega Technical Bulletin No. 169 (CellTiter 96 Aqueous Non-Radioactive Cell Proliferation Assay). Two human cancer cell lines were assayed (see, Table 1). Cells were maintained at 37° C. and 5% CO2 in DMEM media (4.5 g/L glucose) supplemented with 10% heat-inactivated FBS, 10 mM L-glutamine, and 10 mM Hepes pH 7.5. Briefly, cells were seeded in 96-well plates as set forth in Table 1 and incubated for 16-24 hours. Candidate compounds were serially diluted in DMSO, further diluted in cell culture media, and then added to cells (final DMSO concentration of 0.33%). Cells were incubated in the presence of candidate compound for 72 hours. MTS stock solution (MTS 2 gm/L, PMS […] in PBS) was added to the cells (final concentration MTS […] and PMS 7.67 mg/L) and incubated for 4 hours. SDS was added to a final concentration of 1.4% and absorbance at 490 nm was measured within two hours using a plate reader. […] GI50 values were given in Table 2 for the compounds listed. The Compound Numbers in Table 2 correspond to the numbers listed parenthetically in the Example titles. Where multiple measurements were made by different technicians, both values are given.
Cell viability was determined for N-(3-amino-propyl)-3-chloro-N—[(R)-1-(7-chloro-4-oxo-3-phenylamino-3,4-dihydro-quinazolin-2-yl)-but-3-ynyl]-2-fluoro-benzamide (compound I of Table 2). The cell viability assay of Example 105 was used. GI50 was determined using a variety of cell lines. Cells were plated at 100-5000 cells per well. At least 2 replicates were performed. Where multiple measurements were made by different technicians, both values are given.

[1] = read-out: MTS NCI H460 GI50, NCI-H460 non small cell lung, 72 hours

Row | Compound | GI50 (A549) [µM] | IC50 (HsEg5) [µM] | GI50 (NCI-H460; read-out: MTS NCI H460 GI50) [µM] | GI50 (A549; A549, 72 h) [µM] | GI50 (NCI-H460; [1]) [µM]
1 | CC(c1nc2cc(Cl)ccc2c(=O)n1Nc1ccccc1)N(CCCN)C(=O)c1ccc(Cl)c(Cl)c1 (stereo not drawn) [Compound 41, N-(3-Aminopropyl)-N-[1-(3-anilino-7-chloro-4-oxo-3,4-dihydroquinazolin-2-yl)ethyl]-3,4-dichlorobenzamide] | 5.67 | 3.37 | 6.28 |  | 
2 | CSCCC(c1nc2cc(Cl)ccc2c(=O)n1Nc1ccccc1)N(CCCN)C(=O)c1ccc(C)c(F)c1F (stereo not drawn) [Compound 39, N-(3-Aminopropyl)-N-[1-(3-anilino-7-chloro-4-oxo-3,4-dihydroquinazolin-2-yl)-3-(methylthio)propyl]-2,3-difluoro-4-methylbenzamide] | 6.09 | 3.01 | 4.49 |  | 
3 | CCC(c1nc2cc(Cl)ccc2c(=O)n1Nc1ccccc1)N(CCCN)C(=O)c1ccc(F)c(Cl)c1F (stereo not drawn) [Compound 20, N-(3-Aminopropyl)-N-[1-(3-anilino-7-chloro-4-oxo-3,4-dihydroquinazolin-2-yl)propyl]-3-chloro-2,4-difluorobenzamide] | 1.8 | 0.844 | 1 |  | 
4 | NCCCN(C(=O)c1ccc(F)c(F)c1)C(Cc1cccs1)c1nc2cc(Cl)ccc2c(=O)n1Nc1ccccc1 (stereo not drawn) [Compound 52, N-(3-Aminopropyl)-N-[1-(3-anilino-7-chloro-4-oxo-3,4-dihydroquinazolin-2-yl)-2-(2-thienyl)ethyl]-3,4-difluorobenzamide] |  | 1.25 |  | 4.29 | 3.47
5 | CCC(c1nc2cc(Cl)ccc2c(=O)n1Nc1ccccc1)N(CCCN)C(=O)c1cccc(Br)c1 (stereo not drawn) [Compound 14, N-(3-Aminopropyl)-N-[1-(3-anilino-7-chloro-4-oxo-3,4-dihydroquinazolin-2-yl)propyl]-3-bromobenzamide] | 3.44 | 1 | 3.25 |  | 
6 | Cc1ccc(C(=O)N(CCCN)C(Cc2cccs2)c2nc3cc(Cl)ccc3c(=O)n2Nc2ccccc2)cc1 (stereo not drawn) [Compound 49, N-(3-Aminopropyl)-N-[1-(3-anilino-7-chloro-4-oxo-3,4-dihydroquinazolin-2-yl)-2-(2-thienyl)ethyl]-4-methylbenzamide] |  | 3.44 |  | 4.69 | 4.41
7 | CCC(c1nc2cc(Cl)ccc2c(=O)n1Nc1ccccc1)N(CCN)C(=O)c1ccc(C)c(F)c1F (stereo not drawn) [Compound 65, N-(2-Aminoethyl)-N-[1-(3-anilino-7-chloro-4-oxo-3,4-dihydroquinazolin-2-yl)propyl]-2,3-difluoro-4-methylbenzamide] | 12.4 | 4.08 | 11.4 |  | 
8 | CC(C)C(c1nc2cc(Cl)ccc2c(=O)n1Nc1ccccc1)N(CCCN)C(=O)c1cc(F)c(Cl)cc1F (stereo not drawn) [Compound 45, N-(3-Aminopropyl)-N-[1-(3-anilino-7-chloro-4-oxo-3,4-dihydroquinazolin-2-yl)-2-methylpropyl]-4-chloro-2,5-difluorobenzamide] | 3.24 | 0.743 | 3.17 |  | 
9 | CSCCC(c1nc2cc(Cl)ccc2c(=O)n1Nc1ccccc1)N(CCCN)C(=O)c1ccc(-n2cccn2)cc1 (stereo not drawn) [Compound 40, N-(3-Aminopropyl)-N-[1-(3-anilino-7-chloro-4-oxo-3,4-dihydroquinazolin-2-yl)-3-(methylthio)propyl]-4-(1H-pyrazol-1-yl)benzamide] | 6.12 | 2.83 | 8.35 |  | 
10 | CC(C)C(c1nc2cc(Cl)ccc2c(=O)n1Nc1ccccc1)N(CCCN)C(=O)c1cccc(Br)c1 (stereo not drawn) [Compound 44, N-(3-Aminopropyl)-N-[1-(3-anilino-7-chloro-4-oxo-3,4-dihydroquinazolin-2-yl)-2-methylpropyl]-3-bromobenzamide] |  | 1.85 |  | 13.8 | 13.4
11 | CCC(c1nc2cc(Cl)ccc2c(=O)n1Nc1ccccc1)N(CCN)C(=O)c1ccc(C)cc1 (stereo not drawn) [Compound 61, N-(2-Aminoethyl)-N-[1-(3-anilino-7-chloro-4-oxo-3,4-dihydroquinazolin-2-yl)propyl]-4-methylbenzamide] | 14.2 | 3.89 | 12.5 |  | 
12 | CCC(c1nc2cc(Cl)ccc2c(=O)n1Nc1ccccc1)N(CCCN)C(=O)c1ccc(F)c(F)c1F (stereo not drawn) [Compound 10, N-(3-Aminopropyl)-N-[1-(3-anilino-7-chloro-4-oxo-3,4-dihydroquinazolin-2-yl)propyl]-2,3,4-trifluorobenzamide] |  | 0.599 |  | 2.36 | 1.14
13 | CC(C)CC(c1nc2cc(Cl)ccc2c(=O)n1Nc1ccccc1)N(CCCN)C(=O)c1cc(Cl)cc(Cl)c1 (stereo not drawn) [Compound 36, N-(3-Aminopropyl)-N-[1-(3-anilino-7-chloro-4-oxo-3,4-dihydroquinazolin-2-yl)-3-methylbutyl]-3,5-dichlorobenzamide] | 4.37 | 1.86 | 3.77 |  | 
